{"source": "paper PMC11796197", "about": "“Targeting AI-2 quorum sensing: harnessing natural products against Streptococcus suis biofilm infection” (Veterinary Research, 2025)", "target": "LuxS (S-ribosylhomocysteinase) (Streptococcus suis, UniProt A4VZM6)", "sequence (A4VZM6 whole entry)": "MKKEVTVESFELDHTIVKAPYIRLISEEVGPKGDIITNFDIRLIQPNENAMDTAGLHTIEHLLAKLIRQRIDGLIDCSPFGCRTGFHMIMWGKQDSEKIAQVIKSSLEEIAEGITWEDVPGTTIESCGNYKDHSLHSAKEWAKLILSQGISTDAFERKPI", "assay": "Ellman (DTNB) homocysteine assay, […] nm, SRH as substrate", "assay_type": "biochemical", "conditions": "SRH 0-1200 uM, sodium phosphate buffer, 37 C, 15 min, LuxS 1 mg/mL", "data": [{"smiles": "O=C(/C=C/c1ccc(O)c(O)c1/C=C/c1ccc(O)c(O)c1)O[C@H](Cc1ccc(O)c(O)c1)C(=O)O", "note": "[SAA, salvianolic acid A]", "values": [{"measurement": "Ellman (DTNB) homocysteine assay, 412 nm, SRH as substrate", "setting": "noncompetitive", "value": "suggesting a noncompetitive inhibitory effect of SAA on LuxS"}]}, {"smiles": "COc1ccc(/C=C/c2cc(O)cc(O[C@@H]3O[C@H](CO)[C@@H](O)[C@H](O)[C@H]3O)c2)cc1O", "note": "[RH, rhapontin]", "values": [{"measurement": "Ellman (DTNB) homocysteine assay, 412 nm, SRH as substrate", "setting": "competitive", "value": "indicating a competitive inhibitory impact of RH on LuxS"}]}]}
